Assay results from US20230113037A1 (Bayer Aktiengesellschaft, priority 2019, published 2023).
Like-named read-outs stand apart in the source and are kept apart here.

Experiments:
AHR [1] = biological target: T1, AHR (Mus musculus, UniProt P30561); test: In vitro assay 3: antagonism in mouse cell line (AHR transactivation, firefly luciferase reporter, kynurenic acid prestimulated); type: cell-based
T1 sequence (P30561 1-848 P471L/N533S/M589L): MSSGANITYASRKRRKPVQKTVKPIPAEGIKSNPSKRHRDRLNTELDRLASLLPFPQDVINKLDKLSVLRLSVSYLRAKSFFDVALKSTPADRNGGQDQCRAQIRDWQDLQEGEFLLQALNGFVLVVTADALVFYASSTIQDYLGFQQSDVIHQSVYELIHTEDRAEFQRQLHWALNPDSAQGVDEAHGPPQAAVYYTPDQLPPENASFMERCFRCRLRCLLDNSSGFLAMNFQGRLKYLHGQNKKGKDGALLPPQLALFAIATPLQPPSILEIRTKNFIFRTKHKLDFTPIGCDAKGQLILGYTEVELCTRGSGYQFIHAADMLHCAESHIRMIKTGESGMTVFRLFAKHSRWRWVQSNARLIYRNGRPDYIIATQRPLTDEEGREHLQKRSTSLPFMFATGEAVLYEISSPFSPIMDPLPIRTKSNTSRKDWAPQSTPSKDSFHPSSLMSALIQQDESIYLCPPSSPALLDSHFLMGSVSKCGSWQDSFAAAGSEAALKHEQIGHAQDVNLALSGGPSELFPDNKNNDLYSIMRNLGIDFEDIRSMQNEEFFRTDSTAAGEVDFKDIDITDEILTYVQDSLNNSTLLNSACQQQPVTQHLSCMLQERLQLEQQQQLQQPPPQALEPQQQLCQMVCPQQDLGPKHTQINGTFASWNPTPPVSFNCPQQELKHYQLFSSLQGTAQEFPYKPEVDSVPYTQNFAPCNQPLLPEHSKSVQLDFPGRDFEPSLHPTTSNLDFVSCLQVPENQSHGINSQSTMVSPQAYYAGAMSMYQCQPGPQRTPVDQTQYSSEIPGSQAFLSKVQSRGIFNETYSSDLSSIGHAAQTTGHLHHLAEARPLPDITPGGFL
Method in brief: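 Antagonism read as reduced firefly luciferase signal (SteadyGlo) from a stably transfected AHR/DRE reporter in a mouse line prestimulated with kynurenic acid. Data normalized to controls, the full-inhibition control being cells without kynurenic acid; multiple determinations given as average or median values.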

AHR [2] = biological target: T2, AHR (Homo sapiens, UniProt P35869); test: In vitro assay 1: antagonism in human cell line (AHR transactivation, firefly luciferase reporter, kynurenic acid prestimulated); type: cell-based; settings: AHR Antagonism Human IC50 [M]
T2 construct: U87 MG glioblastoma cells (ATCC #HTB-14) endogenously expressing AHR; endogenous in cells; host or cells: U87 MG glioblastoma cells (ATCC #HTB-14)
T2 sequence (P35869 11-848): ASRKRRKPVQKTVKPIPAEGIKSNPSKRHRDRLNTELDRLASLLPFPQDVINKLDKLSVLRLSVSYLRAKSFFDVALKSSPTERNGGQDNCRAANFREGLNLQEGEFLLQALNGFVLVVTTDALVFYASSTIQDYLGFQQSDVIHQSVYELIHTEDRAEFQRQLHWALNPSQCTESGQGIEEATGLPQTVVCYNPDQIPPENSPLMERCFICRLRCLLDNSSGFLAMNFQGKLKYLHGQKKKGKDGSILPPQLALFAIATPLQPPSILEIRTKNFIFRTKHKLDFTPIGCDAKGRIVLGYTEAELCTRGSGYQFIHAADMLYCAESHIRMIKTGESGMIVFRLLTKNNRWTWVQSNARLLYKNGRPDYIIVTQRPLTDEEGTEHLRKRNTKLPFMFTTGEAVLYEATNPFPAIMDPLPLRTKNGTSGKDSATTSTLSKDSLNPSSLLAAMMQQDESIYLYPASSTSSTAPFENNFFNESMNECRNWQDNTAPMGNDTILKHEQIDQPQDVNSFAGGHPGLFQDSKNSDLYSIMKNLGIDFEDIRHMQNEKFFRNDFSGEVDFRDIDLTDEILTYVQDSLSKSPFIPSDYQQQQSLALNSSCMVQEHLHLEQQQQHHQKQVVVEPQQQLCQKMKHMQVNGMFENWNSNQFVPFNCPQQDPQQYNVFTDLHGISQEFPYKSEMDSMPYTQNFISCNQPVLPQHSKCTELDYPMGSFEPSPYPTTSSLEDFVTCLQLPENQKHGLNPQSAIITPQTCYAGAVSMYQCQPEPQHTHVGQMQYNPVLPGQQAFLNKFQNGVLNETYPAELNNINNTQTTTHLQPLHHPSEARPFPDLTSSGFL
Method in brief: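 Antagonism measured as loss of kynurenic acid-driven firefly luciferase from DRE reporter in stably transfected U87 MG cells; constitutive Renilla signal monitors cytotoxicity. Positive/negative control normalization, staurosporine 5 μM with 150 μM kynurenic acid as inhibition control; replicates given as mean or median.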

[3] = mouse Hepa 1c1c7 cells, 200 μM kynurenic acid, 20 hours, read-out: AHR Antagonism Mouse IC50
[4] = read-out: AHR Antagonism Mouse IC50, Hepa 1c1c7 cells, 200 μM kynurenic acid, 20 hours, firefly luciferase reporter
[5] = Hepa 1c1c7 cells, 200 μM kynurenic acid, 20 hours, firefly luciferase reporter, read-out: AHR Antagonism Mouse IC50

SMILES	IC50 (AHR [1]; [3]) [µM]	IC50 (AHR [2]) [M]	IC50 (AHR [2]; firefly luciferase reporter) [M]	further results
COc1ccc(-c2nc3c4ccccc4nc(N[C@H](C)C(=O)NC(C)C)n3n2)cc1 [Example 391, N^2-[2-(4-Methoxyphenyl)[1,2,4]triazolo[1,5-c]quinazolin-5-yl]-N-propan-2-yl-D-alaninamide]	0.0461	3.31e-08		
CCCCNC(=O)CNc1nc2ccccc2c2nc(-c3ccccc3OC(F)(F)F)nn12 [Example 466, N-butyl-N^2-{2-[2-(trifluoromethoxy)phenyl][1,2,4]triazolo[1,5-c]quinazolin-5-yl}glycinamide]	0.107	1.26e-07		
COc1ccc(-c2nc3c4cccc(OCC(C)(F)F)c4nc(N[C@@H]4CCCCNC4=O)n3n2)cc1 [Example 668, (3R)-3-{[7-(2,2-difluoropropoxy)-2-(4-methoxyphenyl)[1,2,4]triazolo[1,5-c]quinazolin-5-yl]amino}azepan-2-one]	0.271	> 5.71e-06		
Cn1cc(-c2nc3c4cccc(C(F)(F)F)c4nc(NC4C(=O)NCC4(C)C)n3n2)cn1 (racemic) [Example 728, (+/−)-4,4-dimethyl-3-{[2-(1-methyl-1H-pyrazol-4-yl)-7-(trifluoromethyl)[1,2,4]triazolo[1,5-c]quinazolin-5-yl]amino}pyrrolidin-2-one]	0.446	> 2e-05		
COc1ccc(-c2nc3c4cc(F)ccc4nc(N[C@@H]4CNCCNC4=O)n3n2)cc1 [Example 277, (6R)-6-{[9-fluoro-2-(4-methoxyphenyl)[1,2,4]triazolo[1,5-c]quinazolin-5-yl]amino}-1,4-diazepan-5-one]	0.0151	> 2e-05		
O=C1NCCNC[C@@H]1Nc1nc2c(Br)cccc2c2nc(-c3cnn(C4CC4)c3)nn12 [Example 953, (6S)-6-{[7-bromo-2-(1-cyclopropyl-1H-pyrazol-4-yl)[1,2,4]triazolo[1,5-c]quinazolin-5-yl]amino}-1,4-diazepan-5-one]			2.14e-08	IC50 (AHR [1]; [4]): 0.0149 µM
COc1ccc(-c2nc3c4cccc(Br)c4nc(N[C@H](C)C(=O)N4CCOC[C@H]4C)n3n2)cc1 [Example 911, (2R)-2-{[7-bromo-2-(4-methoxyphenyl)[1,2,4]triazolo[1,5-c]quinazolin-5-yl]amino}-1-[(3R)-3-methylmorpholin-4-yl]propan-1-one]			1.57e-09	IC50 (AHR [1]; [4]): 0.00198 µM
COCCN(C)C(=O)[C@@H](C)Nc1nc2c(C(F)(F)F)cccc2c2nc(-c3cnn(C)c3)nn12 [Example 878, N-(2-methoxyethyl)-N-methyl-N^2-[2-(1-methyl-1H-pyrazol-4-yl)-7-(trifluoromethyl)[1,2,4]triazolo[1,5-c]quinazolin-5-yl]-D-alaninamide]			2.78e-08	IC50 (AHR [1]; [5]): 0.0433 µM
CC[C@H](Nc1nc2ccccc2c2nc(-c3ccc(Cl)cc3OC(F)(F)F)nn12)C(N)=O [Example 522, (2S)-2-({2-[4-chloro-2-(trifluoromethoxy)phenyl][1,2,4]triazolo[1,5-c]quinazolin-5-yl}amino)butanamide]	0.0291	> 2e-05		
O=C1NCCC[C@H]1Nc1nc2ccccc2c2nc(-c3ccccc3OC(F)F)nn12 [Example 472, (3R)-3-({2-[2-(difluoromethoxy)phenyl][1,2,4]triazolo[1,5-c]quinazolin-5-yl}amino)piperidin-2-one]	0.0381	3.72e-08		
O=C1NCCCC[C@H]1Nc1nc2cccc(C(F)(F)F)c2c2nc(-c3ccc(F)cc3)nn12 [Example 174, (3R)-3-{[2-(4-fluorophenyl)-10-(trifluoromethyl)[1,2,4]triazolo[1,5-c]quinazolin-5-yl]amino}azepan-2-one]	0.00404	2.26e-08		
COc1ccc(-c2nc3c4cccc(Br)c4nc(N[C@H](C)C(=O)N4C[C@@H]5C[C@H]4CO5)n3n2)cc1 [Example 914, (2R)-2-{[7-bromo-2-(4-methoxyphenyl)[1,2,4]triazolo[1,5-c]quinazolin-5-yl]amino}-1-[(1S,4S)-2-oxa-5-azabicyclo[2.2.1]heptan-5-yl]propan-1-one]			8.96e-10	IC50 (AHR [1]; [5]): 0.00136 µM
O=C1NCCCC[C@H]1Nc1nc2ccccc2c2nc(-c3cncnc3)nn12 [Example 642, (3R)-3-{[2-(pyrimidin-5-yl)[1,2,4]triazolo[1,5-c]quinazolin-5-yl]amino}azepan-2-one]	0.683	3.34e-07		
COc1ccc(-c2nc3c4ccccc4nc(N[C@H](C)C(=O)N4CCNCC4)n3n2)cc1 [Example 988, (2R)-2-{[2-(4-methoxyphenyl)[1,2,4]triazolo[1,5-c]quinazolin-5-yl]amino}-1-(piperazin-1-yl)propan-1-one-hydrogen chloride (1/1)]			1.49e-08	IC50 (AHR [1]; [5]): 0.0138 µM
O=C1NCCCC[C@H]1Nc1nc2c(Br)cccc2c2nc(-c3ccncc3)nn12 [Example 216, (3R)-3-{[7-bromo-2-(pyridin-4-yl)[1,2,4]triazolo[1,5-c]quinazolin-5-yl]amino}azepan-2-one]	0.0121	3.35e-09		
COc1cccc(-c2nc3c4ccccc4nc(NC4CCNC4=O)n3n2)c1 (single isomer, unassigned) [Example 120, 3-{[2-(3-methoxyphenyl)[1,2,4]triazolo[1,5-c]quinazolin-5-yl]amino}pyrrolidin-2-one]	0.0561	6.02e-08		
O=C1NCCNC[C@H]1Nc1nc2c(C3CC3)cccc2c2nc(-c3cnn(CC4CC4)c3)nn12 [Example 954, (6R)-6-({7-cyclopropyl-2-[1-(cyclopropylmethyl)-1H-pyrazol-4-yl][1,2,4]triazolo[1,5-c]quinazolin-5-yl}amino)-1,4-diazepan-5-one]			7.73e-08	IC50 (AHR [1]; [5]): 0.341 µM
Cc1nn(C)cc1-c1nc2c3cccc(C(F)(F)F)c3nc(N[C@H]3CNCCNC3=O)n2n1 [Example 948]			2.08e-08	IC50 (AHR [1]; [5]): 0.0496 µM
CCSc1cccc2c1nc(N[C@@H]1CCCCNC1=O)n1nc(-c3cnn(C)c3)nc21 [Example 769, (3R)-3-{[7-(ethylsulfanyl)-2-(1-methyl-1H-pyrazol-4-yl)[1,2,4]triazolo[1,5-c]quinazolin-5-yl]amino}azepan-2-one]	0.151	2.1e-08		
O=C1NCCCC[C@H]1Nc1nc2ccccc2c2nc(-c3cc(C(F)(F)F)ccn3)nn12 [Example 363, (3R)-3-({2-[4-(trifluoromethyl)pyridin-2-yl][1,2,4]triazolo[1,5-c]quinazolin-5-yl}amino)azepan-2-one]		3.5e-08		IC50 (AHR [1]; read-out: AHR Antagonism Mouse IC50, mouse Hepa 1c1c7 cells, 200 μM kynurenic acid, 20 hours): 0.0107 µM
Cc1cccc2nc(N[C@@H]3CCCCNC3=O)n3nc(-c4cnn(C)c4)nc3c12 [Example 183, (3R)-3-{[10-methyl-2-(1-methyl-1H-pyrazol-4-yl)[1,2,4]triazolo[1,5-c]quinazolin-5-yl]amino}azepan-2-one]	0.453	2.48e-08		
